Experimental data reported in patent publication US20180193365A1, “USE OF HYDROGEN SULFIDE TO PREVENT LENS OPACIFICATION” (Creighton University, priority 2017, published 2018).
“Also recorded” adds a separate entry of the source.

Assays:
cultured bovine lenses [1] = assay: Lens degradation/opacification of DMEM-cultured bovine lenses (light transmittance, photographs); type: cell-based; settings: 120 hours; for attenuation of light transmittance compared to untreated DMEM lenses (time=0 hours): 420 nm
cultured bovine lenses [2] = assay: H2O2-induced lens degradation/opacification in cultured bovine lenses (light transmittance, photographs); type: cell-based
glutathione (GSH) = settings: 50 mM; 120 hours

In the case of `O=C1O[C@H]([C@@H](O)CO)C(O)=C1O` [ascorbic acid], the “attenuation of light transmittance compared to untreated DMEM lenses (time=0 hours)” value (cultured bovine lenses [1]; 3 mM) was 60.57%, the “attenuation of light transmittance compared to untreated DMEM lenses (time=0 hours)” value (cultured bovine lenses [1]; 10 mM) was 57.42% and the “qualitative assessment of lens opacity (photographs against grid)” value (cultured bovine lenses [1]; 10 mM) was “accelerated the degradation process; also recorded: accelerated lens degradation; also recorded: accelerated clouding of the lens”. The “attenuation of H2O2-induced inhibition of light transmittance” value (cultured bovine lenses [2]; 3 mM, H2O2 50 mM, 120 hours) was 9.22%, the “qualitative assessment of H2O2-induced lens opacity (photographs against grid)” value (cultured bovine lenses [2]; 3 mM, H2O2 50 mM, 120 hours) was “protected lenses from peroxide-induced degradation” and the “protection from peroxide-induced lens degradation” value (cultured bovine lenses [2]; 10 mM, H2O2 50 mM, 120 hours) was “failed to protect”.

With `OO` [H2O2, hydrogen peroxide] the “decrease of light transmittance compared to DMEM-cultured lenses (time=0 hour)” value (cultured bovine lenses [2]; 50 mM, after 120 hours) was 36.76% and the “attenuation of GSH content compared to untreated lenses (time=0 hours)” value (glutathione (GSH)) was 82.56%.
